The values below come from PMC10762078, “Role of UPF1-LIN28A interaction during early differentiation of pluripotent stem cells” (Nature Communications, 2024).

Ends that are not written are not given here.

The subject of one assay is UPF1-LIN28A interaction. Kind of assay: GST pull-down of MYC-UPF1 with GST-LIN28A in presence of CPP-conjugated peptide. The format is cell-based. The settings on record: 293T cells, CPP-peptide 2 μM 12 h, n = 3. How it is done:
For CPP-conjugated peptide delivery, HeLa, 293T, and PA-1 cells were incubated with CPP-conjugated peptides or CPP-FITC at 2 μM in DMEM with 10% FBS for 12 h a day before cell harvest. hPSCs were treated with CPP-conjugated peptides at 10 μM in mTeSR Plus Medium, and the peptide-containing medium was changed every day over 10 days. The ROCK inhibitor (Tocris Bioscience, Y-27632) treated-hPSCs were dissociated into single cells using Accutase (Merck, SCR005) and differentiated into ectoderm, mesoderm, and endoderm using the STEMdiff Trilineage Differentiation Kit ([…] Technologies, 05230) following the manufacturer’s protocol. Differentiated cells treated with CPP-conjugated peptides were analysed at 0, 3, and 5 days for ectoderm and endoderm, and at 0, 3, and 4 days for mesoderm.
Cells were lysed in ice-cold hypotonic buffer (10 mM Tris-Cl pH 7.5, 10 mM NaCl, 10 mM EDTA, 0.5% Triton X 100, Xpert Protease inhibitor cocktail solution, and Xpert Phosphatase inhibitor cocktail solution (GenDEPOT)). […]
Protein samples were loaded for electrophoresis on sodium dodecyl sulphate (SDS) polyacrylamide gels, followed by Coomassie blue staining or transferred to nitrocellulose membranes (Cytiva) for WB. […] The blots were imaged using ChemiDoc XRS+ System (Bio-Rad) and the greyscale intensity values were quantified using Image Lab 3.0 software (Bio-Rad).

In assay [1] the test system is human fetal neural stem cells (VM-NSCs or CTX-NSCs). Kind of assay: H2O2-stressed human fetal neural stem cells: survival and neuronal markers (peer review file). The format is cell-based. The following applies: compared with CPP-P1. The text has this:
4. In addition to identifying the differentiation markers, what are the effects of LIN28A-UPF1 interactions on the functional differentiation phenotypes?
We observed that the levels of stem cell markers, POU5F1 (OCT4) and NANOG, were reduced when UPF1 and LIN28A interaction was disrupted by the […]
To determine the effects of CPP-P8 during […]
split every 4~6-days. After CPP-P8 treatment, the cell phenotypes treated with CPP-P8 looked more like the spontaneous differentiated cells than the ones treated with CPP-P1 and CPP-P2 (Fig. 6c and Supplementary Fig. 6b in the revised manuscript).
The final experiment to determine the functional phenotypes used treated human fetal neural stem cells (ventral midbrain (VM)-NSCs or cortex (CTX)-NSCs), which was stressed by H2O2, with the peptides (CPP-P1 or P8), and differentiation to neurons was initiated. The immunofluorescence results […]
neuron markers, Tyrosine hydroxylase (TH) and TUJ1 compared with CPP-P1 treatment. We are preparing another manuscript to show the effects of CPP-P8 on neuronal differentiation, we would like […]
We hope our additional experiments have addressed the reviewer’s concern.
Original Manuscript Revised Manuscript
Fig. 1e Supplementary Fig. 6b
(1 picture or pasted object on this page, not shown here)

For the sequence “KKKWCRKKKSSADEKRYRALKRTAERELLMNA [CPP-P8, CPP conjugated to P8]”, the “coimmunoprecipitated MYC-UPF1 with GST-LIN28A” value with UPF1-LIN28A interaction was “reduced upon CPP-P8 treatment”.

As for KKKWCRKKKSSADEKRYRALKRTAERELLMNA [P8], in assay [1] (DAPI staining), the “cell survival” value is “increased cell survival (DAPI staining)”. Moreover, the “dopaminergic neuron markers TH and TUJ1” value in assay [1] is on record as “upregulated dopaminergic”.
